# According to the NIST ThermoML archive (doi:10.1016/j.jct.2008.02.019):
# ± gives the expanded uncertainty stated by the source.
# Experiments:
# [1] = excess molar enthalpy (molar enthalpy of mixing); xn = mol fraction of the nth substance listed; settings: 101 kPa, Liquid, Flow calorimetry
# [2] = xn = mol fraction of the nth substance listed; settings: 101 kPa, Liquid
smiles,measurement,setting,value
CCCC[n+]1ccc(C)cc1.F[B-](F)(F)F [1-butyl-4-methylpyridinium tetrafluoroborate] + CCO,excess molar enthalpy,"[1]; 298.15 K, x1 = 0.0209",0.0715 ± 0.00191 kcal/mol
same,excess molar enthalpy,"[1]; 298.15 K, x1 = 0.0461",0.149 ± 0.00335 kcal/mol
same,excess molar enthalpy,"[1]; 298.15 K, x1 = 0.0751",0.224 ± 0.00478 kcal/mol
same,excess molar enthalpy,"[1]; 298.15 K, x1 = 0.1068",0.285 ± 0.00621 kcal/mol
same,excess molar enthalpy,"[1]; 298.15 K, x1 = 0.1406",0.358 ± 0.00765 kcal/mol
same,excess molar enthalpy,"[1]; 298.15 K, x1 = 0.1751",0.419 ± 0.00908 kcal/mol
same,excess molar enthalpy,"[1]; 298.15 K, x1 = 0.2104",0.481 ± 0.0103 kcal/mol
same,excess molar enthalpy,"[1]; 298.15 K, x1 = 0.246",0.527 ± 0.0112 kcal/mol
same,excess molar enthalpy,"[1]; 298.15 K, x1 = 0.2661",0.554 ± 0.0117 kcal/mol
same,excess molar enthalpy,"[1]; 298.15 K, x1 = 0.3",0.571 ± 0.0122 kcal/mol
same,excess molar enthalpy,"[1]; 298.15 K, x1 = 0.3402",0.58 ± 0.0124 kcal/mol
same,excess molar enthalpy,"[1]; 298.15 K, x1 = 0.3855",0.57 ± 0.0122 kcal/mol
same,excess molar enthalpy,"[1]; 298.15 K, x1 = 0.4296",0.545 ± 0.0117 kcal/mol
same,excess molar enthalpy,"[1]; 298.15 K, x1 = 0.4879",0.505 ± 0.0108 kcal/mol
same,excess molar enthalpy,"[1]; 298.15 K, x1 = 0.5522",0.455 ± 0.0098 kcal/mol
same,excess molar enthalpy,"[1]; 298.15 K, x1 = 0.6225",0.389 ± 0.00837 kcal/mol
same,excess molar enthalpy,"[1]; 298.15 K, x1 = 0.712",0.318 ± 0.00693 kcal/mol
same,excess molar enthalpy,"[1]; 298.15 K, x1 = 0.8071",0.223 ± 0.00478 kcal/mol
same,excess molar enthalpy,"[1]; 298.15 K, x1 = 0.903",0.12 ± 0.00263 kcal/mol
same,excess molar enthalpy,"[1]; 318.15 K, x1 = 0.0162",0.0906 ± 0.00263 kcal/mol
same,excess molar enthalpy,"[1]; 318.16 K, x1 = 0.0465",0.211 ± 0.00478 kcal/mol
same,excess molar enthalpy,"[1]; 318.17 K, x1 = 0.075",0.315 ± 0.00693 kcal/mol
same,excess molar enthalpy,"[1]; 318.18 K, x1 = 0.108",0.408 ± 0.00884 kcal/mol
same,excess molar enthalpy,"[1]; 318.19 K, x1 = 0.1427",0.495 ± 0.0105 kcal/mol
same,excess molar enthalpy,"[1]; 318.2 K, x1 = 0.178",0.566 ± 0.0122 kcal/mol
same,excess molar enthalpy,"[1]; 318.21 K, x1 = 0.2091",0.623 ± 0.0134 kcal/mol
same,excess molar enthalpy,"[1]; 318.22 K, x1 = 0.2364",0.658 ± 0.0141 kcal/mol
same,excess molar enthalpy,"[1]; 318.23 K, x1 = 0.2498",0.683 ± 0.0146 kcal/mol
same,excess molar enthalpy,"[1]; 318.24 K, x1 = 0.2824",0.708 ± 0.0151 kcal/mol
same,excess molar enthalpy,"[1]; 318.25 K, x1 = 0.3237",0.718 ± 0.0153 kcal/mol
same,excess molar enthalpy,"[1]; 318.26 K, x1 = 0.3722",0.717 ± 0.0153 kcal/mol
same,excess molar enthalpy,"[1]; 318.27 K, x1 = 0.4286",0.697 ± 0.0148 kcal/mol
same,excess molar enthalpy,"[1]; 318.28 K, x1 = 0.4859",0.664 ± 0.0141 kcal/mol
same,excess molar enthalpy,"[1]; 318.29 K, x1 = 0.5506",0.618 ± 0.0131 kcal/mol
same,excess molar enthalpy,"[1]; 318.3 K, x1 = 0.6196",0.558 ± 0.012 kcal/mol
same,excess molar enthalpy,"[1]; 318.31 K, x1 = 0.6923",0.483 ± 0.0103 kcal/mol
same,excess molar enthalpy,"[1]; 318.32 K, x1 = 0.7625",0.404 ± 0.0086 kcal/mol
same,excess molar enthalpy,"[1]; 318.33 K, x1 = 0.8348",0.315 ± 0.00669 kcal/mol
same,excess molar enthalpy,"[1]; 318.34 K, x1 = 0.9014",0.213 ± 0.00454 kcal/mol
same,excess molar enthalpy,"[1]; 318.35 K, x1 = 0.9592",0.102 ± 0.00239 kcal/mol
same,mass density,"[2]; 298.15 K, x1 = 0.0523",852 ± 2.1 kg/m3
same,mass density,"[2]; 298.15 K, x1 = 0.1023",901.7 ± 1.9 kg/m3
same,mass density,"[2]; 298.15 K, x1 = 0.1469",938.3 ± 1.7 kg/m3
same,mass density,"[2]; 298.15 K, x1 = 0.2023",976 ± 1.4 kg/m3
same,mass density,"[2]; 298.15 K, x1 = 0.307",1030.5 ± 1.5 kg/m3
same,mass density,"[2]; 298.15 K, x1 = 0.3801",1059.5 ± 1.6 kg/m3
same,mass density,"[2]; 298.15 K, x1 = 0.4445",1080.8 ± 1.7 kg/m3
same,mass density,"[2]; 298.15 K, x1 = 0.5069",1098.6 ± 1.8 kg/m3
same,mass density,"[2]; 298.15 K, x1 = 0.5553",1110.8 ± 1.8 kg/m3
same,mass density,"[2]; 298.15 K, x1 = 0.6045",1121.8 ± 1.9 kg/m3
same,mass density,"[2]; 298.15 K, x1 = 0.6639",1134.2 ± 1.9 kg/m3
same,mass density,"[2]; 298.15 K, x1 = 0.7127",1142.8 ± 1.9 kg/m3
same,mass density,"[2]; 298.15 K, x1 = 0.7447",1148.4 ± 1.9 kg/m3
same,mass density,"[2]; 298.15 K, x1 = 0.7964",1156.8 ± 1.9 kg/m3
same,mass density,"[2]; 298.15 K, x1 = 0.8673",1167 ± 1.9 kg/m3
same,mass density,"[2]; 298.15 K, x1 = 0.9171",1173.6 ± 1.9 kg/m3
same,mass density,"[2]; 318.15 K, x1 = 0.0464",827.9 ± 2.2 kg/m3
same,mass density,"[2]; 318.15 K, x1 = 0.0965",881.1 ± 2 kg/m3
same,mass density,"[2]; 318.15 K, x1 = 0.1445",921.6 ± 1.7 kg/m3
same,mass density,"[2]; 318.15 K, x1 = 0.2494",987.9 ± 1.4 kg/m3
same,mass density,"[2]; 318.15 K, x1 = 0.2968",1011 ± 1.3 kg/m3
same,mass density,"[2]; 318.15 K, x1 = 0.3855",1046.8 ± 1.5 kg/m3
same,mass density,"[2]; 318.15 K, x1 = 0.4947",1080.9 ± 1.7 kg/m3
same,mass density,"[2]; 318.15 K, x1 = 0.5877",1103.6 ± 1.7 kg/m3
same,mass density,"[2]; 318.15 K, x1 = 0.6821",1123.2 ± 1.8 kg/m3
same,mass density,"[2]; 318.15 K, x1 = 0.7798",1139.8 ± 1.8 kg/m3
same,mass density,"[2]; 318.15 K, x1 = 0.8267",1146.8 ± 1.8 kg/m3
same,mass density,"[2]; 318.15 K, x1 = 0.8776",1153.8 ± 1.8 kg/m3
